The values below are quoted from earlier work in patent US20160151380A1, “THERAPIES FOR DISEASES CAUSED BY ARTHROPOD-BORNE PARASITES” (THE REGENTS OF THE UNIVERSITY OF CALIFORNIA, priority 2013, published 2016).

Chain of JNK1 (P45983 whole entry, species assumed): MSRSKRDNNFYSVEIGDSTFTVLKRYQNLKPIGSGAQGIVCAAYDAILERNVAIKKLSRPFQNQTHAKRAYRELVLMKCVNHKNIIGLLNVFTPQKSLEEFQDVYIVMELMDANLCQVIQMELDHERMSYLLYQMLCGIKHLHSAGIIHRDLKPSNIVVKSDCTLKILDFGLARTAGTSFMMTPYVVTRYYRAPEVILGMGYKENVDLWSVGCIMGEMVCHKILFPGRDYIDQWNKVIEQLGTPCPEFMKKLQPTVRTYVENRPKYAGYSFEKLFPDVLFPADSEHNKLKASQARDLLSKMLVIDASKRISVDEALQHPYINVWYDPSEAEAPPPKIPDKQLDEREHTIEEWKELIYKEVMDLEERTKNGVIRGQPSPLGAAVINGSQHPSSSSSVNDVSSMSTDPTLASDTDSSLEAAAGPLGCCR

The target in the first data set is JNK3 (Homo sapiens, UniProt P53779). The note with it: cited from earlier work.
Chain of JNK3 (P53779 whole entry, species assumed): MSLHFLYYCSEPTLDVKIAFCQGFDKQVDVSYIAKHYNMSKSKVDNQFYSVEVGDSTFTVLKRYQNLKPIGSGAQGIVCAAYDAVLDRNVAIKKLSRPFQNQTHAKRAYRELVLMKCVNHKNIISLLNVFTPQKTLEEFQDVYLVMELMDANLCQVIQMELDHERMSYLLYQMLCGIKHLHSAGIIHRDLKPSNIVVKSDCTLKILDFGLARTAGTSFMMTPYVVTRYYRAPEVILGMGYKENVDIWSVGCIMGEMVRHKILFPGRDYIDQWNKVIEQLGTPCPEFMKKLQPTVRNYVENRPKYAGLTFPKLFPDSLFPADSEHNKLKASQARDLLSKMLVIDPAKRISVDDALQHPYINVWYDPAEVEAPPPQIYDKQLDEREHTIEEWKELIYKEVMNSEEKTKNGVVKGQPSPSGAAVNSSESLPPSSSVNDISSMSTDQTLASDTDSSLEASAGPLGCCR
Consider `O=C(O)c1ccc(-c2c[nH]c3ncc(-c4ccccc4)cc23)cc1C1CCCC1` [GSK650394A], for which the IC50 was more than 600 nM.

With `Cn1c2ccccc2c2c3c(c4c5ccccc5n(CCC#N)c4c21)CNC3=O` [Go6976, 5,6,7,13-Tetrahydro-13-methyl-5-oxo-12H-indolo[2,3-a]pyrrolo[3,4-c]carbazole-12-propa-nenitrile], the IC50 is more than 300 nM.

Take `O=C1c2ccccc2-c2nc3nnnn3nc21` [PDK1/Akt/Flt Inhibitor]: the IC50 is 500 nM.

As to `CN(C)C[C@@H]1CCn2cc(c3ccccc32)C2=C(C(=O)NC2=O)c2cn(c3ccccc23)CCO1` [Ruboxistaurin], the IC50 was more than 900 nM.

Take `CN1CCC(CNc2ccc3ncc(-c4cccc(OC(F)(F)F)c4)n3n2)CC1` [SGI-1776]: the IC50 is more than 1000 nM.

In the case of `COc1ccc(-c2cc3nccn3c(Nc3ncccc3C(N)=O)n2)cc1OC` [Syk Inhibitor IV], the IC50 is less than 400 nM.

In a further data set the target is MAPK14 p38 (Homo sapiens, UniProt Q16539). The note with it: cited from earlier work.
Chain of MAPK14 p38 (Q16539 whole entry): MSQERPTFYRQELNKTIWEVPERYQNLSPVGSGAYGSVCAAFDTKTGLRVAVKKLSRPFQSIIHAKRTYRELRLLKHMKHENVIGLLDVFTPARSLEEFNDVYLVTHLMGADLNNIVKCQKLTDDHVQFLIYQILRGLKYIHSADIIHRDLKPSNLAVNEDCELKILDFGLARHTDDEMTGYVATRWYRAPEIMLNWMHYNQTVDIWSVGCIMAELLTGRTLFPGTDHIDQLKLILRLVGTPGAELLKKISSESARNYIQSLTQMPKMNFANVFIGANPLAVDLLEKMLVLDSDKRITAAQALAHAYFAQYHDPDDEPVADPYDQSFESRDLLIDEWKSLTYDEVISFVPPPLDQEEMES
On to `Cc1ccc(C(=O)Nc2cccc(C(F)(F)F)c2)cc1-c1ccc2nc(N)ncc2c1` [2ofv], for which the IC50 was 6 nM.

Consider `Cc1cccc(-c2nn(C(=S)Nc3ccccc3)cc2-c2ccnc3ccccc23)n1` [A-83-01], for which the IC50 is 100 nM.

On to `COc1cc2ncnc(Nc3cccc(Cl)c3)c2cc1OC` [AG1478], for which the IC50 was 560 nM.

For the molecule `CC1=C2N=C(C=C3NC(=Cc4[nH]c(c(CCC(=O)O)c4CC(=O)O)Cc4[nH]c1c(CC(=O)O)c4CCC(=O)O)C(CCC(=O)O)C3(C)CC(=O)O)C(CCC(=O)O)C2(C)CC(=O)O` (stereo not drawn) [BX517], the IC50 is more than 900 nM.

On to `CCNc1nnc2ccc(-c3ocnc3-c3ccc(F)cc3)cn12` [CHEMBL213451], for which the IC50 was 7.6 nM.

Consider `CC(C)c1nnc2ccc(-c3ocnc3-c3ccc(F)cc3Cl)cn12` [CHEMBL215652], for which the IC50 is 2.5 nM.

With `Cc1ccc(C(=O)Nc2ccon2)cc1Nc1ncnc(NC2CCCC2)c1C#N` [CHEMBL383172], the inhibition constant Ki is 1.6 nM.

With `Cc1ccc(-n2nc(C(C)(C)C)cc2NC(=O)Nc2cccc3ccccc23)cc1` [CHEMBL420047], the Kd was 1 nM.

As to `Cc1ccc(NC(=O)c2cccc(N3CCCCC3)c2)cc1-c1ccc(C(=O)NCC2CC2)cc1` [CHEMBL1964275], the Kd was less than 10 nM.

Turning to `NC(N)=NC(=O)Cc1c(Cl)cccc1Cl` [Kinome_3519], the Ki is 0.2 nM.

`c1ccc(-c2[nH]ncc2-c2ccnc3ccccc23)nc1` [LY364947]: the IC50 was 740 nM.

Consider `CNC(=O)c1cc(Oc2ccc(NC(=O)Nc3ccc(Cl)c(C(F)(F)F)c3)c(F)c2)ccn1` [Regorafenib], for which the IC50 is less than 100 nM.

As to `Cc1cc(F)ccc1-c1nc(NC(CO)CO)nc2c1ccc(=O)n2-c1c(F)cccc1F` [SB681323], the IC50 was less than 100 nM.

Take `Oc1cccc2cccnc12` [SPDD01923]: the IC50 was 0.11 nM.

Consider `CN(C)c1ccc(C(=N)c2ccc(N(C)C)cc2)cc1` [SureCN3936664], for which the IC50 is 5 nM.

In the case of `CCCCCCCCCCCCCC(=NO)c1cc(OC)ccc1O` [SureCN4219451], the concentration for half-maximal inhibition (IC50) is 1.8 nM.

For the molecule `CCC(C)C(C(=O)O)N1C(=O)C(=Cc2c(F)cccc2Cl)SC1=S` (stereo not drawn) [SureCN4762364], the IC50 was 3.2 nM.

For the molecule `O=C(COC(=O)C1COc2ccccc2O1)Nc1cc(C(F)(F)F)ccc1N1CCOCC1` (stereo not drawn) [SureCN4875304], the IC50 is 540 nM.

As to `COc1ccc2c(Oc3ccc(NC(=O)c4c(C)n(CC(C)(C)O)n(-c5ccccc5)c4=O)nc3)ccnc2c1` [SureCN5495613], the IC50 is 9 nM.

Regarding `Cc1ccc(NC(=O)c2cccc(N(C)C)c2)cc1NC(=O)c1ccc(O)cc1` [ZM336372], the IC50 was 180 nM.

Another data set addresses JNK1 (Homo sapiens, UniProt P45983). The note with it: cited from earlier work.
On to `N#CC(c1ccnc(NCCc2cccnc2)n1)c1nc2ccccc2s1` (stereo not drawn) [AS601245], for which the IC50 was 150 nM.

In the case of `CC1=C2N=C(C=C3NC(=Cc4[nH]c(c(CCC(=O)O)c4CC(=O)O)Cc4[nH]c1c(CC(=O)O)c4CCC(=O)O)C(CCC(=O)O)C3(C)CC(=O)O)C(CCC(=O)O)C2(C)CC(=O)O` (stereo not drawn) [BX517], the IC50 was more than 900 nM.

On to `CCS(=O)(=O)N1CC(CC#N)(n2cc(-c3ncnc4[nH]ccc34)cn2)C1` [Baricitinib], for which the IC50 is more than 1000 nM.

As for `N#C/C(=C1/Nc2ccccc2S1)c1ccnc(NCCc2cccnc2)n1` [CHEMBL1788116], the IC50 is 150 nM.

For `COCCOc1ccc2c(c1)ncn2-c1ccc2cccc(N3CCC(N)CC3)c2n1` [CP673451], the IC50 is more than 1000 nM.

In the case of `NC(=O)Nc1sc(-c2ccc(F)cc2)cc1C(N)=O` [IKK-2 Inhibitor IV], the Kd was less than 1250 nM.

For `O=C(c1ccc(Nc2nccc(-c3cc4ccccc4s3)n2)cc1)N1CCC(N2CCCC2)CC1` [K00596a], the IC50 is 100 nM.

For the molecule `CCCCCCOC(=O)[C@]1(O)C[C@@H]2O[C@@]1(C)n1c3ccccc3c3c4c(c5c6ccccc6n2c5c31)C(=O)NC4` [KT5720], the IC50 is less than 800 nM.

For `BrCBr` [Kinome_3024], the Ki is 3 nM.

With `CCCC(=O)NC1=NC2C(N=CN2C2OC3OP(=O)(O)OC3C2OC(=O)CCC)C(=O)N1` (stereo not drawn) [Kinome_3028], the Ki is 3 nM.

For `CCN(CC)C(=O)c1ccc(Nc2nc(OCC3CCCCC3)c3[nH]cnc3n2)cc1` [NU6140], the IC50 is 500 nM.

For `CC(C)(C)n1nc(Cc2cccc3ccccc23)c2c(N)ncnc21` [PP1 Analog II; 1NM-PP1], the IC50 is 140 nM.

As for `CN1CC=C(c2c[nH]c3ccc(-c4cccs4)cc23)CC1` [SureCN10063060], the Ki is more than 1000 nM.

The target in a further data set is T1, PKCepsilon (Homo sapiens, UniProt Q02156).
T1 sequence (Q02156 1-737): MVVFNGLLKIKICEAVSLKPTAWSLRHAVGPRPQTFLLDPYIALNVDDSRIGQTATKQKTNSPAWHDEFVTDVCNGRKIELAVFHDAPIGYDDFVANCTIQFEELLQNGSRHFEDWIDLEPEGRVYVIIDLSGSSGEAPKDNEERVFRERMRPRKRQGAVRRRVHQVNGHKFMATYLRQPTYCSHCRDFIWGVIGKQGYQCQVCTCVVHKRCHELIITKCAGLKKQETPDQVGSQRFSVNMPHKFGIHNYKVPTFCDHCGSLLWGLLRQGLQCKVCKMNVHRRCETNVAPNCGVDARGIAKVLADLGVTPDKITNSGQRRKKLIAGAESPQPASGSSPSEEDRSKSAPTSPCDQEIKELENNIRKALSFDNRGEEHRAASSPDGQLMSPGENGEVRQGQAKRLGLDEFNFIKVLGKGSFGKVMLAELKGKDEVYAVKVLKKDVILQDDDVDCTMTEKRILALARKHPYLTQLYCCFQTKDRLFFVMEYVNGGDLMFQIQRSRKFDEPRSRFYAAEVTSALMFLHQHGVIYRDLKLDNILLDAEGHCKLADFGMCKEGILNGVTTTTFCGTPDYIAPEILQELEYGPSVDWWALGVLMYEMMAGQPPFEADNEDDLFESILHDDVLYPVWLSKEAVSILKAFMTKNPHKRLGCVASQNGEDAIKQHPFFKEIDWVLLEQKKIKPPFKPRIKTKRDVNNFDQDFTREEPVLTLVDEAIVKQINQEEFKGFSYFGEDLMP
The note with it: PKCepsilon; cited from earlier work.
Regarding `O=C1NC(=O)c2c1c1c3ccccc3[nH]c1c1[nH]c3ccccc3c21` [Arcyriaflavin A], the IC50 is 310 nM.

Take `CC(C)(C)c1nc2c3cc[nH]c(=O)c3c3cc(F)ccc3c2[nH]1` [BCP9000906]: the IC50 was 500 nM.

Take `COc1cccc(Nc2ncnn3ccc(CN4CC[C@@H](N)[C@H](O)C4)c23)c1` [BMS-690514]: the Kd was less than 400 nM.

Turning to `O=C1NC(=O)C(c2c[nH]c3ccccc23)=C1c1c[nH]c2ccccc12` [Bisindolylmaleimide IV, 3,4-bis(1H-indol-3-yl)pyrrole-2,5-dione], the half-inhibitory concentration (IC50) was 190 nM.

On to `CN(C)CCCn1cc(C2=C(c3c[nH]c4ccccc34)C(=O)NC2=O)c2ccccc21` [Bisindolylmaleimide I], for which the IC50 is less than 25 nM.

`CCN1CCOCCn2cc(c3ccccc32)C2=C(C(=O)NC2=O)c2cn(c3ccccc23)CCOCC1` [CHEMBL103055]: the IC50 was 75 nM.

As to `O=C(OC1CCCC1Cc1ccc(O)cc1)c1cc(O)c(C(=O)c2c(O)cccc2C(=O)O)c(O)c1` (stereo not drawn) [CHEMBL295806], the IC50 was 120 nM.

In the case of `N=C(N)SCCCn1c(-c2cc3ccccc3s2)c(C2=CC(=O)NC2=O)c2ccccc21` [CHEMBL350335], the IC50 was 10 nM.

Consider `Cc1c(Nc2c(C#N)cncc2/C=C/CCN2CCC[C@@H](N)C2)ccc2[nH]ccc12` [CHEMBL606245], for which the IC50 was 14 nM.

Regarding `COc1ccc2c(c1)c(C1=C(c3c[nH]c4ccccc34)C(=O)NC1=O)cn2CCCN(C)C` [Go6983, 3-[1-[3-(dimethylamino)propyl]-5-methoxyindol-3-yl]-4-(1H-indol-3-yl)pyrrole-2,5-dione], the IC50 was more than 150 nM.

Regarding `Cc1cncc2cccc(S(=O)(=O)N3CCCN(C(=O)CN)C[C@@H]3C)c12` [H-1152; Glycyl], the IC50 was 500 nM.

Turning to `C#Cc1cccc(Nc2ncnc3cc4c(cc23)OCCOCCOCCO4)c1` [Icotinib], the IC50 is more than 1000 nM.

In the case of `O=C1NC(=O)C(c2cn(CCCn3ccnc3)c3ccccc23)=C1Nc1ccccc1` [PKCb Inhibitor, 3-anilino-4-[1-(3-imidazol-1-ylpropyl)indol-3-yl]pyrrole-2,5-dione], the IC50 was more than 50 nM.

For the molecule `O=C1Nc2ccc3ncsc3c2/C1=C/c1cnc[nH]1` [PKR Inhibitor], the IC50 is more than 150 nM.

As for `Nc1ncnc2c1c(-c1cnc3[nH]ccc3c1)nn2C1CCCC1` [PP121], the IC50 is less than 750 nM.

Consider `Cn1cc(C2=C(c3cn(CCCSC(=N)N)c4ccccc34)C(=O)NC2=O)c2ccccc21` [Ro-31-8220, methanesulfonic acid; 3-[3-[4-(1-methylindol-3-yl)-2,5-dioxopyrrol-3-yl]indol-1-yl]propyl carbamimidothioate], for which the IC50 was 10 nM.

Regarding `O=C1NC(=O)c2c1c1c3ccccc3n3c1c1c2c2ccccc2n1C1CCC3O1` [SB218078], the IC50 was more than 150 nM.

On to `C[C@@H](OC(=O)c1ccc2c(c1)OCCO2)C(=O)Nc1ccc(Cl)cc1Cl` [SureCN2579964], for which the IC50 is less than 750 nM.

For the molecule `CCc1cccc(OCCOCCN2CC(C)OC(C)C2)c1` (stereo not drawn) [SureCN2934634], the IC50 was 1.6 nM.

As to `CC1CCCN(CCOCCOc2ccc(Cl)cc2C(C)(C)C)C1` (stereo not drawn) [SureCN2934911], the IC50 is 36 nM.

With `CCOC(=O)C(NC(=O)CCC(=O)OCC(=O)C1(O)CCC2C3CCC4=CC(=O)CCC4(C)C3C(O)CC21C)C(O)c1ccccc1` (stereo not drawn) [SureCN3774124], the IC50 was 330 nM.

For the molecule `COc1c(Br)cc(Br)cc1/C=N\Nc1nc(NCc2ccccc2)nc(N2CCOCC2)n1` [SureCN5757856], the half-maximal inhibitory concentration (IC50) is 140 nM.

On to Cdk1/2 Inhibitor III, for which the IC50 is more than 50 nM.

The data set is the same for the next values; noted with them: cited from earlier work.
For the molecule `CC(C)[C@H]1C(=O)N[C@H](CO)Cc2c[nH]c3cccc(c23)N1C` [Indolactam V], the Ki is 7.7 nM.

A word on the IC50: it is the concentration needed to halve the response being measured. The term Ki denotes the equilibrium dissociation constant of an inhibitor or competing ligand from its target. For orientation: Kd means a measure of binding affinity in units of concentration.
